Reference: US9588122B2, “Methods of treating cancer sensitive to anti-EGFR therapy and modifying treatment using peroxiredoxin 6 biomarker” (The Board of Trustees of the Leland Stanford Junior …, priority 2013, dated 2017)

Columns and labels:
A431 = experiment: Dose-dependent change in panel protein levels by western blot; format: cell-based, human; settings: for BAG4 protein level change / CAD17 protein level change / CBFB protein level change / Claudin 1 protein level change / ELAVL-1 protein level change / EpCAM protein level change / HSPG2 protein level change / PDCD4 protein level change / PRDX6 protein level change / QARS protein level change / S100A9 protein level change / SERPINE1 protein level change / SNX5 protein level change / TESTICAN2 protein level change / TNFAIP2 protein level change / TROP-2 protein level change: dose-dependent, 16 h; for changes in levels of the 16 validated proteins (immunoblots): erlotinib 100-1,000 nM, paclitaxel 10-100 nM; on BAG4 protein level change: key: (+) for increase; (−) for decrease; N.C.: (N.C) for no change; (~) for not detected; on CAD17 protein level change: key: (+) for increase; (−) for decrease; N.C.: (N.C) for no change; (~) for not detected; on CBFB protein level change: key: (+) for increase; (−) for decrease; N.C.: (N.C) for no change; (~) for not detected; on Claudin 1 protein level change: key: (+) for increase; (−) for decrease; N.C.: (N.C) for no change; (~) for not detected
Description: (§1) Lysates were sonicated for 10 minutes, heated at 95° C. for 10 minutes, and centrifuged for 15 minutes at 20,000×g. The supernatant was cleared through a 0.22-micron filter and protein concentration was determined (BCA, BioRad, Hercules, Calif.). Lysates were subject to SDS-PAGE and subsequent immunoblot. For in vivo experiments, mouse tumor pieces from 5 mice were pooled and suspended in RAF buffer and homogenized with a high-speed blender. The homogenate was centrifuged for 5 min at 200×g. The supernatant was sonicated on ice for 2 minutes and centrifuged for 1 hr at 12,000×g. The supernatant (soluble fraction) was cleared through a 0.22-micron filter and processed as above. The pellet (insoluble fraction) was resuspended in RAF buffer with 2% SDS and DTT, heated at 95° C. and sonicated prior to processing.

NSCLC cells = experiment: Biomarker profiles / PRDX6 shedding of treated NSCLC (Example 3); format: cell-based
NSCLC patients = experiment: PRDX6 levels in circulation of NSCLC patients before and after Tarceva; format: in vivo, human
From the text: To validate if this temporal profile is replicated in a clinical setting, the plasma and/or sera from human NSCLC patients was studied before and after Tarceva® (erlotinib) treatment. […] Serum samples from MRN #48 (FIG. 10A) were taken before and after treatment with Tarceva®. […] Plasma samples were obtained before treatment, and at 2 weeks and 4 weeks post initiation of treatment.

H1975 = experiment: Dose-dependent change in panel protein levels by western blot; settings: 16 h
Description: as §1

H23 = experiment: as above; settings: 16 h
Description: as §1

H1650 = experiment: as above; settings: 16 h
Description: as §1

H1975 xenografts = experiment: H1975 xenograft study (Example 2)
A431 xenografts [1] = experiment: A431 xenograft model (Example 1); format: in vivo, mice
From the text: . […] . Control animals received vehicle alone (20 animals).

A431 xenografts [2] = experiment: A431 subcutaneous xenograft study (Example 2)
A431-ZDR tumors = experiment: Gefitinib-resistant A431-ZDR xenograft model (Example 1); format: in vivo, mice; settings: treated vs untreated controls
Description: Lysates were sonicated for 10 minutes, heated at 95° C. for 10 minutes, and centrifuged for 15 minutes at 20,000×g. The supernatant was cleared through a 0.22-micron filter and protein concentration was determined (BCA, BioRad, Hercules, Calif.). Lysates were subject to SDS-PAGE and subsequent immunoblot. For in vivo experiments, mouse tumor pieces from 5 mice were pooled and suspended in RAF buffer and homogenized with a high-speed blender. The homogenate was centrifuged for 5 min at 200×g. The supernatant was sonicated on ice for 2 minutes and centrifuged for 1 hr at 12,000×g. The supernatant (soluble fraction) was cleared through a 0.22-micron filter and processed as above. The pellet (insoluble fraction) was resuspended in RAF buffer with 2% SDS and DTT, heated at 95° C. and sonicated prior to processing. Serum from 5 mice was pooled and depleted using two MARS-3 columns (Agilent) connected in tandem with HPLC. The unbound fraction was concentrated to a final concentration of 2 mg/ml and processed as above.

A431 cells = settings: previously shown; read-out: IC50 of paclitaxel in A431 cells; cited from earlier work
[3] = patient MRN 9, Pre-Tarceva 1.07 +/− 0.03
[4] = patient MRN 48, Pre-Tarceva 0.27 +/− 0.01
[5] = patient MRN 91, Pre-Tarceva 0.65 +/− 0.09

O=c1[nH]c2ccccc2n1C1CCN(Cc2ccc(-c3nc4cc5[nH]cnc5cc4nc3-c3ccccc3)cc2)CC1 [A6730]
BAG4 protein level change (A431; western blot): + | CAD17 protein level change (A431; western blot): N.C. | CBFB protein level change (A431; western blot): + | Claudin 1 protein level change (A431; western blot): + | ELAVL-1 protein level change (A431; western blot): N.C. | EpCAM protein level change (A431; western blot): N.C. | HSPG2 protein level change (A431; western blot): N.C. | PDCD4 protein level change (A431; western blot): N.C. | PRDX6 protein level change (A431; western blot): N.C. | QARS protein level change (A431; western blot): + | S100A9 protein level change (A431; western blot): N.C. | SERPINE1 protein level change (A431; western blot): N.C. | SNX5 protein level change (A431; western blot): N.C. | TESTICAN2 protein level change (A431; western blot): N.C. | TNFAIP2 protein level change (A431; western blot): + | TROP-2 protein level change (A431; western blot): N.C.

COc1cccc(-c2cc(=O)c3ccccc3o2)c1N [PD98059]
Claudin-1 expression (A431; AKT or MAPK pathway inhibition): changes in expression | panel proteins that showed a change in abundance (A431; AKT or MAPK pathway inhibition): CAD17, PDCD4, S100A9, SERPINE1, and Testican-2 | panel proteins unchanged by treatment (A431; AKT or MAPK pathway inhibition): ELAVL-1, EpCAM, HSPG2, TROP2, and SNX5 | BAG4 protein level change (A431; western blot): N.C. | CAD17 protein level change (A431; western blot): + | CBFB protein level change (A431; western blot): N.C. | Claudin 1 protein level change (A431; western blot): + | ELAVL-1 protein level change (A431; western blot): N.C. | EpCAM protein level change (A431; western blot): N.C. | HSPG2 protein level change (A431; western blot): N.C. | PDCD4 protein level change (A431; western blot): + | PRDX6 protein level change (A431; western blot): + | QARS protein level change (A431; western blot): N.C. | S100A9 protein level change (A431; western blot): + | SERPINE1 protein level change (A431; western blot): + | SNX5 protein level change (A431; western blot): N.C. | TESTICAN2 protein level change (A431; western blot): + | TNFAIP2 protein level change (A431; western blot): N.C. | TROP-2 protein level change (A431; western blot): N.C.

C#Cc1cccc(Nc2ncnc3cc(OCCOC)c(OCCOC)cc23)c1 [erlotinib]
biomarker profiles by treated NSCLC cells (NSCLC cells; compared with Iressa treated cells, data not shown): the same as Iressa | circulating PRDX6 profile in patients with positive response (NSCLC patients; at least three patients, pilot data): initial rise in circulating PRDX6 (2-4 weeks post-therapy) followed by a decline in PRDX6 levels by 8 weeks post-therapy | PRDX6 level in circulation, Post-Tarceva (2 wks.) (NSCLC patients; [3]): 1.63 +/− 0.05 ng PRDX6/Total Protein in circulation | PRDX6 level in circulation, Post-Tarceva (3.5 to 4 wks.) (NSCLC patients; [3]): 0.33 +/− 0.11 ng PRDX6/Total Protein in circulation | PRDX6 level in circulation, Post-Tarceva (6.5-8 wks.) (NSCLC patients; [3]): 0.45 +/− 0.05 ng PRDX6/Total Protein in circulation | PRDX6 level in circulation, Post-Tarceva (2 wks.) (NSCLC patients; [4]): 0.76 +/− 0.08 ng PRDX6/Total Protein in circulation | PRDX6 level in circulation, Post-Tarceva (3.5 to 4 wks.) (NSCLC patients; [4]): 0.42 +/− 0.02 ng PRDX6/Total Protein in circulation | PRDX6 level in circulation, Post-Tarceva (3.5 to 4 wks.) (NSCLC patients; [5]): 5.0 +/− 0.3 ng PRDX6/Total Protein in circulation | PRDX6 level in circulation, Post-Tarceva (6.5-8 wks.) (NSCLC patients; [5]): 0.46 +/− 0.18 ng PRDX6/Total Protein in circulation | BAG4 protein level change (A431; western blot): + | CAD17 protein level change (A431; western blot): + | CBFB protein level change (A431; western blot): + | Claudin 1 protein level change (A431; western blot): + | ELAVL-1 protein level change (A431; western blot): + | EpCAM protein level change (A431; western blot): + | HSPG2 protein level change (A431; western blot): + | PDCD4 protein level change (A431; western blot): + | PRDX6 protein level change (A431; western blot): + | QARS protein level change (A431; western blot): + | S100A9 protein level change (A431; western blot): + | SERPINE1 protein level change (A431; western blot): + | SNX5 protein level change (A431; western blot): − | TESTICAN2 protein level change (A431; western blot): + | TNFAIP2 protein level change (A431; western blot): + | TROP-2 protein level change (A431; western blot): + | changes in levels of the 16 validated proteins (immunoblots) (A431): mirrored the effect of gefitinib

COc1cc2ncnc(Nc3ccc(F)c(Cl)c3)c2cc1OCCCN1CCOCC1 [gefitinib]
BAG4 protein level change (H1975): N.C. | CAD17 protein level change (H1975): N.C. | CBFB protein level change (H1975): N.C. | Claudin 1 protein level change (H1975): N.C. | ELAVL-1 protein level change (H1975): N.C. | EpCAM protein level change (H1975): N.C. | HSPG2 protein level change (H1975): N.C. | PDCD4 protein level change (H1975): N.C. | PRDX6 protein level change (H1975): N.C. | S100A9 protein level change (H1975): N.C. | SERPINE1 protein level change (H1975): N.C. | SNX5 protein level change (H1975): N.C. | TESTICAN2 protein level change (H1975): N.C. | TNFAIP2 protein level change (H1975): N.C. | TROP-2 protein level change (H1975): N.C. | BAG4 protein level change (H23): + | CAD17 protein level change (H23): + | CBFB protein level change (H23): N.C. | Claudin 1 protein level change (H23): N.C. | ELAVL-1 protein level change (H23): N.C. | EpCAM protein level change (H23): N.C. | HSPG2 protein level change (H23): N.C. | PDCD4 protein level change (H23): N.C. | PRDX6 protein level change (H23): N.C. | QARS protein level change (H23): N.C. | S100A9 protein level change (H23): N.C. | SERPINE1 protein level change (H23): N.C. | SNX5 protein level change (H23): N.C. | TNFAIP2 protein level change (H23): + | TROP-2 protein level change (H23): N.C. | BAG4 protein level change (H1650): N.C. | CAD17 protein level change (H1650): + | CBFB protein level change (H1650): + | Claudin 1 protein level change (H1650): + | ELAVL-1 protein level change (H1650): + | EpCAM protein level change (H1650): + | HSPG2 protein level change (H1650): + | PDCD4 protein level change (H1650): + | PRDX6 protein level change (H1650): + | QARS protein level change (H1650): + | S100A9 protein level change (H1650): N.C. | SERPINE1 protein level change (H1650): + | SNX5 protein level change (H1650): N.C. | TESTICAN2 protein level change (H1650): N.C. | TNFAIP2 protein level change (H1650): + | TROP-2 protein level change (H1650): + | tumor response (tumor volumes) (H1975 xenografts; 50 mg/kg daily oral, vs vehicle): no response | mean serum PRDX6 levels (H1975 xenografts; after treatment): increased | PRDX6 levels with respect to treatment (H1975 xenografts; models carrying Iressa-resistant NSCLC xenografts): did not change | difference in mean change from baseline in serum PRDX6 (H1975 xenografts; vs vehicle, Day 4 (P=0.461), Day 10-14 (P=0.3404)): not statistically significant | difference in mean change from baseline in serum PRDX6 normalized to tumor volume (H1975 xenografts; vs vehicle, Day 4 (P=0.7922), Day 10-14 (P=0.8849)): not significant | VAMP3, KLF5, and GLTSCR2 level (A431; 100 nM): marginal increase | level of all other verified proteins (A431; 100, 500, and 1,000 nM, 16 hrs, western blot): dose-dependent increase | ELAVL-1 response at higher doses (A431; 500 and 1,000 nM vs 100 nM, 16 hrs, western blot): not amplified at higher doses | BAG4 protein level change (A431; western blot): + | CAD17 protein level change (A431; western blot): + | CBFB protein level change (A431; western blot): + | Claudin 1 protein level change (A431; western blot): + | ELAVL-1 protein level change (A431; western blot): + | EpCAM protein level change (A431; western blot): + | HSPG2 protein level change (A431; western blot): + | PDCD4 protein level change (A431; western blot): + | PRDX6 protein level change (A431; western blot): + | QARS protein level change (A431; western blot): + | S100A9 protein level change (A431; western blot): + | SERPINE1 protein level change (A431; western blot): + | SNX5 protein level change (A431; western blot): − | TESTICAN2 protein level change (A431; western blot): + | TNFAIP2 protein level change (A431; western blot): + | TROP-2 protein level change (A431; western blot): + | tumor size and growth (A431 xenografts [1]; 50 mg/kg gefitinib vs untreated): significantly smaller than those in untreated mice and grew at a slower rate | panel proteins whose in vivo change was concordant with in vitro experiments (A431 xenografts [1]; A431 tumor lysates, immunoblot): 12 of the 16 | tumor growth (A431 xenografts [2]; 50 mg/kg daily oral, vs vehicle Day 7 P=0.0102, Day 11 P=0.002, Day 15 P=0.0001): marked arrest in tumor growth | mean serum PRDX6 levels (A431 xenografts [2]; between Day 0 and Day 15, change vs vehicle P<0.0001): decreased | tumor PRDX6 (tumor lysates) (A431 xenografts [2]; day 15, vs vehicle, P=0.2185): no statistically significant difference | difference in mean change from baseline in serum PRDX6 normalized to tumor volume (A431 xenografts [2]; vs vehicle, P=0.0027): statistically significant | tumor growth rates (A431-ZDR tumors): No differences in tumor growth rates

CC(=O)O[C@H]1C(=O)[C@@]2(C)[C@H]([C@H](OC(=O)c3ccccc3)[C@]3(O)C[C@H](OC(=O)[C@H](O)[C@@H](NC(=O)c4ccccc4)c4ccccc4)C(C)=C1C3(C)C)[C@]1(OC(C)=O)CO[C@@H]1C[C@@H]2O [paclitaxel]
shedding of PRDX6 (NSCLC cells; effective paclitaxel treatment on NSCLC): failed to elicit a similar shedding of PRDX6 | IC50 (A431 cells): ~10 nM | BAG4 protein level change (A431; western blot): N.C. | CAD17 protein level change (A431; western blot): N.C. | CBFB protein level change (A431; western blot): N.C. | Claudin 1 protein level change (A431; western blot): N.C. | ELAVL-1 protein level change (A431; western blot): N.C. | EpCAM protein level change (A431; western blot): N.C. | HSPG2 protein level change (A431; western blot): N.C. | PDCD4 protein level change (A431; western blot): N.C. | PRDX6 protein level change (A431; western blot): N.C. | QARS protein level change (A431; western blot): N.C. | S100A9 protein level change (A431; western blot): N.C. | SERPINE1 protein level change (A431; western blot): N.C. | SNX5 protein level change (A431; western blot): N.C. | TESTICAN2 protein level change (A431; western blot): N.C. | TNFAIP2 protein level change (A431; western blot): N.C. | TROP-2 protein level change (A431; western blot): N.C. | changes in levels of the 16 validated proteins (immunoblots) (A431): none of the proteins tested demonstrated a change in abundance
